Test [1] addresses T1, cGMP-dependent protein kinase 2 (Homo sapiens) (UniProt Q13237).
T1 sequence (whole entry): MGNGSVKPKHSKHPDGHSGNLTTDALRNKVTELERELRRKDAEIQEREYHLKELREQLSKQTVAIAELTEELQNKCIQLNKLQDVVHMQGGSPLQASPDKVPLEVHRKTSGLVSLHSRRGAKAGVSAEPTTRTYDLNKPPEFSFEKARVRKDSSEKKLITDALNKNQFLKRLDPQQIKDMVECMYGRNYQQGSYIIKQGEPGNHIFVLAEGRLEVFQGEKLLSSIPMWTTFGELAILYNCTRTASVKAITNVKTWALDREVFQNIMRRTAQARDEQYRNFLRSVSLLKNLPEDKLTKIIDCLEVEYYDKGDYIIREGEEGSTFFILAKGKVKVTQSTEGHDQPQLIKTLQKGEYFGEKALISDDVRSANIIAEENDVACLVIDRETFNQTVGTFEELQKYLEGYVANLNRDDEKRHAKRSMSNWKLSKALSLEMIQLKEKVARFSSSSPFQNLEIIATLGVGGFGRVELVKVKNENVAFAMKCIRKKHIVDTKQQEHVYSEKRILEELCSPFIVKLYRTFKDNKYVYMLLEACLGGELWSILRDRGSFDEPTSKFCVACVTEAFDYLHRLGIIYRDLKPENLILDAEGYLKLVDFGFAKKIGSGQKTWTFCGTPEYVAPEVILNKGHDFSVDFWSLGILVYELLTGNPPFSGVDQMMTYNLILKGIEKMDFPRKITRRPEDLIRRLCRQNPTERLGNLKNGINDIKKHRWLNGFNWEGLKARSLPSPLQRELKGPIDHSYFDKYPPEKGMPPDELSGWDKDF
As to the kind of experiment: Inhibition of human recombinant PKG2 at 40 nM related to control ULK1.

Test [2] addresses SRSF protein kinase 3 (Homo sapiens) (UniProt Q9UPE1). As to the kind of experiment: Inhibition of human recombinant MSSK1 at 40 nM in presence of ATP by radiometric assay relative to control.
Test [3] deals with Mast/stem cell growth factor receptor Kit (Homo sapiens) (UniProt P10721). As to the kind of experiment: Inhibition of human recombinant KIT at 40 nM related to control ULK1.
For test [4], the target named is Ribosomal protein S6 kinase alpha-3 (Homo sapiens) (UniProt P51812). As to the kind of experiment: Inhibition of human recombinant RSK2 at 40 nM in presence of ATP by radiometric assay relative to control.
Chain of Ribosomal protein S6 kinase alpha-3 (Homo sapiens) (P51812 whole entry): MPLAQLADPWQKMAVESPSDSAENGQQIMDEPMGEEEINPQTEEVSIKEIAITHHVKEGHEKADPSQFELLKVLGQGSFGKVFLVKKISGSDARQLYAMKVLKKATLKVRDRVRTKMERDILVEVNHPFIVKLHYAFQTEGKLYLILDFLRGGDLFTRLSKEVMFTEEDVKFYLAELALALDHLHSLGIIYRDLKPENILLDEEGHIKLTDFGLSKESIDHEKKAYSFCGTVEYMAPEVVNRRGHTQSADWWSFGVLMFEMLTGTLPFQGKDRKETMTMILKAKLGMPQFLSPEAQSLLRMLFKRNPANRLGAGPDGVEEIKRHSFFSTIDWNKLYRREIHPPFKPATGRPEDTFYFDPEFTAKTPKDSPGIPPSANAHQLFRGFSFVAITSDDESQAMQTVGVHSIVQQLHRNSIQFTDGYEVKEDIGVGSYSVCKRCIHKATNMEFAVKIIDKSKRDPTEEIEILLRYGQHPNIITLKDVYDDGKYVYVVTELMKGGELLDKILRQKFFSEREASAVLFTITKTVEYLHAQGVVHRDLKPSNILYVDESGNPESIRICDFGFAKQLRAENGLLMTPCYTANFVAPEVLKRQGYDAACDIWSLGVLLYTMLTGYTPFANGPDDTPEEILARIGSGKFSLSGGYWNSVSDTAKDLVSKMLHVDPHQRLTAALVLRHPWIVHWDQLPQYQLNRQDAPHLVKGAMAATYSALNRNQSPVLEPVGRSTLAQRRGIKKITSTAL
Test [5] has as its target T2, cGMP-dependent protein kinase 1 (Homo sapiens) (UniProt Q13976).
T2 sequence (whole entry): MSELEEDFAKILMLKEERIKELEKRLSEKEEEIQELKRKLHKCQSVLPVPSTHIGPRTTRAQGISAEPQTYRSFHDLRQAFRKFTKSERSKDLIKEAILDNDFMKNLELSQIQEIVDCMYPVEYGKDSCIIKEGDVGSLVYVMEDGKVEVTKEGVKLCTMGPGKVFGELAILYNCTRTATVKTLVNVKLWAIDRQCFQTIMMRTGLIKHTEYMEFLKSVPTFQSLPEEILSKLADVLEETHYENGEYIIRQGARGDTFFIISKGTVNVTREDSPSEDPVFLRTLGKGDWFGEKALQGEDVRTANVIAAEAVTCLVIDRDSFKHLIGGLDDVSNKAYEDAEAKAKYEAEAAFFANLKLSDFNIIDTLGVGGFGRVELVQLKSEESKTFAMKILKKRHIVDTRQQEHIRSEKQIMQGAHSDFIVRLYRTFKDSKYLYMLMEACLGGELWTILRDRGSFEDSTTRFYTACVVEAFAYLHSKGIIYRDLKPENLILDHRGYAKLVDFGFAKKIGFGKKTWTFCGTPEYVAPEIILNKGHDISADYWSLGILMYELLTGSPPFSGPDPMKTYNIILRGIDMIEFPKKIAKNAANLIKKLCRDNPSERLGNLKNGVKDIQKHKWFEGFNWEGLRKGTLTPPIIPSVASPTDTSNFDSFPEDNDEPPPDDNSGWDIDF
As to the kind of experiment: Inhibition of human recombinant PKG1 at 500 nM in presence of ATP by radiometric assay relative to control.

Test [6] concerns the target Mitogen-activated protein kinase 10 (Homo sapiens) (UniProt P53779). As to the kind of experiment: Inhibition of human recombinant JNK3 at 500 nM related to control ULK1.
Test [7] has as its target Death-associated protein kinase 2 (Homo sapiens) (UniProt Q9UIK4). As to the kind of experiment: Inhibition of human recombinant DAPK2 at 500 nM in presence of ATP by radiometric assay relative to control.
Test [8] addresses Protein kinase C alpha type (Homo sapiens) (UniProt P17252). As to the kind of experiment: Inhibition of human recombinant PKCa at 15 nM related to control ULK1.
Test [9] deals with T3, Myotonin-protein kinase (Homo sapiens) (UniProt Q09013).
T3 sequence (whole entry): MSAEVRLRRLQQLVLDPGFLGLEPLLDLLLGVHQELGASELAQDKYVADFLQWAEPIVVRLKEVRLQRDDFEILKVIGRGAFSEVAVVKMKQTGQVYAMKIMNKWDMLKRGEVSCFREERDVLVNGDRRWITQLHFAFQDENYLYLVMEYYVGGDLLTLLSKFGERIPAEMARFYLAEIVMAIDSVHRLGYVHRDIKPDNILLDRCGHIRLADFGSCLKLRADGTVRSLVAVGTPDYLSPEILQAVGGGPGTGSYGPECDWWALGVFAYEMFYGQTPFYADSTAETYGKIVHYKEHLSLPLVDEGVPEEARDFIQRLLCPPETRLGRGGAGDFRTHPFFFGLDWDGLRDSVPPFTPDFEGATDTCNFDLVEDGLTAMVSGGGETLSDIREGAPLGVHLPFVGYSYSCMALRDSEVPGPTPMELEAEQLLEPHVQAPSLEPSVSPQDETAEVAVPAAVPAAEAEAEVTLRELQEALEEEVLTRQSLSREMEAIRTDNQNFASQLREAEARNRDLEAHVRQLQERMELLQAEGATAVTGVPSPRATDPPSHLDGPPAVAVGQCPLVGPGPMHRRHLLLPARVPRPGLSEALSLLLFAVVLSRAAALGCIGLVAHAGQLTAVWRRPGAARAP
As to the kind of experiment: Inhibition of human recombinant DMPK1 at 15 nM related to control ULK1.

Test [10] addresses Leucine-rich repeat serine/threonine-protein kinase 2 (Homo sapiens) (UniProt Q5S007). As to the kind of experiment: Inhibition of human recombinant LRRK2 at 15 nM related to control ULK1.

Each structure is given as a SMILES string.

Chain of Mitogen-activated protein kinase 10 (Homo sapiens) (P53779 whole entry): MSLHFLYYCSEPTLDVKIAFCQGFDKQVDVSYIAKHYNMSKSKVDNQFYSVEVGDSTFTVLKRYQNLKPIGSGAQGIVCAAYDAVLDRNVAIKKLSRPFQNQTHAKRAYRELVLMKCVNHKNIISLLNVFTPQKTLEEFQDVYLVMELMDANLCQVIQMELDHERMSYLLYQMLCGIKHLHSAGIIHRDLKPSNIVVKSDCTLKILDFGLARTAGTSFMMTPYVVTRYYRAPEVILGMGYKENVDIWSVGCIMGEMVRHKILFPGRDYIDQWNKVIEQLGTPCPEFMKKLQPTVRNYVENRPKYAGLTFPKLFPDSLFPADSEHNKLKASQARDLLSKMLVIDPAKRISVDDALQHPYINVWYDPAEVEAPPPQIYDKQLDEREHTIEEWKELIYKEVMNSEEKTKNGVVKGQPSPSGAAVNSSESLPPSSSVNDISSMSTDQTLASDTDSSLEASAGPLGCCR
Chain of Leucine-rich repeat serine/threonine-protein kinase 2 (Homo sapiens) (Q5S007 whole entry): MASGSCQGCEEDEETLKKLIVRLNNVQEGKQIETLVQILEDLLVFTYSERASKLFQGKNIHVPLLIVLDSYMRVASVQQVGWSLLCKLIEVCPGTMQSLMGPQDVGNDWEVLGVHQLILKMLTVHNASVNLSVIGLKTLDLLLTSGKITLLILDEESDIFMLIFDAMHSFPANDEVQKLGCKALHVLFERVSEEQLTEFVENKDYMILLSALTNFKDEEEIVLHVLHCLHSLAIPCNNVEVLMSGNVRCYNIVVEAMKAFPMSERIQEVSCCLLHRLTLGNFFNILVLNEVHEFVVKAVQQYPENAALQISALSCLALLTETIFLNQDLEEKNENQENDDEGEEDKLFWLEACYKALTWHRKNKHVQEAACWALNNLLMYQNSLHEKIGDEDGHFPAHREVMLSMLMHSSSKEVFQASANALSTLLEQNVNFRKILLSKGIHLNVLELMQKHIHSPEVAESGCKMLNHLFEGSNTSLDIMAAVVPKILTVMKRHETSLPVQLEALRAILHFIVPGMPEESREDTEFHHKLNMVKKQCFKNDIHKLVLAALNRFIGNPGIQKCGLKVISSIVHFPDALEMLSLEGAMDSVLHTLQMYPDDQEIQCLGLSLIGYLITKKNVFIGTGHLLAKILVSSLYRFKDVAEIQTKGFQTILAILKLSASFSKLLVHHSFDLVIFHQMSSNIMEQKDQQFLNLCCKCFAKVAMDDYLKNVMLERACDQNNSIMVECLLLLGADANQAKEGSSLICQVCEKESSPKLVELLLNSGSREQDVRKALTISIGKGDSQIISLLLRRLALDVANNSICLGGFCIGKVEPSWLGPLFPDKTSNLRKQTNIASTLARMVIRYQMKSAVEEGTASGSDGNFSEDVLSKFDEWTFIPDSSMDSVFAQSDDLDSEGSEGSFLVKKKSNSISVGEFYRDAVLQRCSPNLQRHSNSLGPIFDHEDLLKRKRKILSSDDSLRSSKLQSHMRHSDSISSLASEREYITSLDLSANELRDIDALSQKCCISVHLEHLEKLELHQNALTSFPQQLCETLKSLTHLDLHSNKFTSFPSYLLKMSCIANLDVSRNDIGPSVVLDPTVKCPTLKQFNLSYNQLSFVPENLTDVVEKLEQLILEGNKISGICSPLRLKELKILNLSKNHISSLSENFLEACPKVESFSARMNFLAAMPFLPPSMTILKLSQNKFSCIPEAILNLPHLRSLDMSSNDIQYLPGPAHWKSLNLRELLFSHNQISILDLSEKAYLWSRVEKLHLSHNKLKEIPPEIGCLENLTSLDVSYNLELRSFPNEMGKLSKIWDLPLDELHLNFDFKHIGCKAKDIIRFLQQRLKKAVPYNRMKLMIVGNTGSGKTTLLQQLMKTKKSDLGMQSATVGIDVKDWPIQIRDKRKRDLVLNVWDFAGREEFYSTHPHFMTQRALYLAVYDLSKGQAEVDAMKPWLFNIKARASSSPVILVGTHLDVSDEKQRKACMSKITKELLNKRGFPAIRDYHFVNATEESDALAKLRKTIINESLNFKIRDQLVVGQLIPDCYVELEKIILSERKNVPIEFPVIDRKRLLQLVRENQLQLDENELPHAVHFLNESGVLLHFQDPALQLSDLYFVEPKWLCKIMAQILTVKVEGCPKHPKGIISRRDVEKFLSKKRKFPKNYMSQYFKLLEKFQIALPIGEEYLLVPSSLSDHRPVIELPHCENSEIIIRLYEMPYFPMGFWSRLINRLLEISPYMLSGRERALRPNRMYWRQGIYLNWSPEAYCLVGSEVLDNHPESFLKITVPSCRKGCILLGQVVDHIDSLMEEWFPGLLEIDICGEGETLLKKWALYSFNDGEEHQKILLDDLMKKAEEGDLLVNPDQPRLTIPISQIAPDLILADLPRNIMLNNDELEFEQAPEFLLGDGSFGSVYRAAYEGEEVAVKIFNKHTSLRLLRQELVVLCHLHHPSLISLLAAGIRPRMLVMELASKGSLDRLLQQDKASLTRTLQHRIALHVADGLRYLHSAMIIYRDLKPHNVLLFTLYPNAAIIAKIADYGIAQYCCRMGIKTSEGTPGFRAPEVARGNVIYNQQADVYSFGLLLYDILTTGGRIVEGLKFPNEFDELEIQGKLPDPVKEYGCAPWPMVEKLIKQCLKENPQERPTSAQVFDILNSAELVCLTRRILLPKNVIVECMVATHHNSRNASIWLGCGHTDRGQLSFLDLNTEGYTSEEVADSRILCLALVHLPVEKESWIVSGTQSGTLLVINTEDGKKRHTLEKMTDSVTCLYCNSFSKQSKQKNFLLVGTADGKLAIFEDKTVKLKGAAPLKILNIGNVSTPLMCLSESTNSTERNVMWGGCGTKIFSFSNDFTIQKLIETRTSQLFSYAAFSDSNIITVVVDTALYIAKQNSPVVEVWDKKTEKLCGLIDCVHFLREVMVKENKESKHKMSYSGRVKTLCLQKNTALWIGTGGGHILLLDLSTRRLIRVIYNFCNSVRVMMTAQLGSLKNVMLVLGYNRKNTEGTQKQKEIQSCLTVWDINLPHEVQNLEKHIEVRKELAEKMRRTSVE
Chain of SRSF protein kinase 3 (Homo sapiens) (Q9UPE1 whole entry): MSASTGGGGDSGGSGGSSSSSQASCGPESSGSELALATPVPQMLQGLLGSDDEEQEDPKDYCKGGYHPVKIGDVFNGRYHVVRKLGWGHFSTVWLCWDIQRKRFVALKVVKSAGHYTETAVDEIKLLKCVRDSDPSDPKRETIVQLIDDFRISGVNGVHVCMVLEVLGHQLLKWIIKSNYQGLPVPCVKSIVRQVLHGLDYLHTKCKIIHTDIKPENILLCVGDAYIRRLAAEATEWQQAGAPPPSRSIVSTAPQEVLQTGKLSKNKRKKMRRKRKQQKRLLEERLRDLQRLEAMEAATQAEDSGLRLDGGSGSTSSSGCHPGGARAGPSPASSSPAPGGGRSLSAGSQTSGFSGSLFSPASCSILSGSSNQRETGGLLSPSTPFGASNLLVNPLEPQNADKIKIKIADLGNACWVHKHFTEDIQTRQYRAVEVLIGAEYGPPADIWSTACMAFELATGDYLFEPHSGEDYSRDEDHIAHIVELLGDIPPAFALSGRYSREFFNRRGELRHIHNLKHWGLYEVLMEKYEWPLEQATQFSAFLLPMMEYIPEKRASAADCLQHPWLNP

Usually inhibition stands for the drop in the measured response relative to a control, in per cent. Turning to `O=C(N[C@@H](C1CC1)C(F)(F)F)c1cc(-c2cnn3cc(-c4ccc(F)cc4)cnc23)cs1`, the fold change (FC) is 0.01 in test [1] and 0 in test [3]. Also, the inhibition in test [2] turned out to be 13%; in test [4] it was 0%.
For `CNC(=O)c1ccccc1Oc1nc(Nc2cc(OC)c(OC)c(OC)c2)ncc1Br`, the inhibition amounted to 4% in test [5] and 0% in [7]. Also, the fold change (FC) in test [6] was determined as 0.04.
As for `CC(C)[C@H](NC(=O)c1cc(-c2cnn3cc(-c4ccc(OCCN5CCCCC5)cc4)cnc23)cs1)C(F)(F)F`, the fold change (FC) in [8] amounted to 0.08; in test [9], 0; in test [10], 0.03.

Values taken from ChEMBL document CHEMBL5653631, “A Potent and Selective ULK1 Inhibitor Suppresses Autophagy and Sensitizes Cancer Cells to Nutrient Stress” (iScience, 2018).
